The assay deals with CL145A (ATCC 55799). In words: Antibiotic resistance profile, antibiotic discs on Mueller-Hinton agar. The following applies: 72 hours incubation.
Description: One glycerol stock vial of CL145A was equally distributed onto Mueller-Hinton Agar plates (100 μl per plate) and spread on the plate using a sterile cell spreader. Antibiotic discs were then placed onto the plates along with a blank sterile disc. Plates were incubated at 25° C. in the dark for 72 hours.
Take `O=C(N[C@H](CO)[C@H](O)c1ccc([N+](=O)[O-])cc1)C(Cl)Cl` [Chloramphenicol]: the “CL145A resistant or sensitive to the antibiotic (growth inhibited by the antibiotic disc)” value was “resistant”.

With Gentamicin, the “CL145A resistant or sensitive to the antibiotic (growth inhibited by the antibiotic disc)” value is “sensitive”.

For `CC1(C)S[C@@H]2[C@H](NC(=O)[C@H](N)c3ccccc3)C(=O)N2[C@H]1C(=O)O` [Ampicillin], the “CL145A resistant or sensitive to the antibiotic (growth inhibited by the antibiotic disc)” value is recorded as “resistant”.

For Penicillin, the “CL145A resistant or sensitive to the antibiotic (growth inhibited by the antibiotic disc)” value is “resistant”.

In the case of `CC[C@H]1OC(=O)[C@H](C)[C@@H](O[C@H]2C[C@@](C)(OC)[C@@H](O)[C@H](C)O2)[C@H](C)[C@@H](O[C@@H]2O[C@H](C)C[C@H](N(C)C)[C@H]2O)[C@](C)(O)C[C@@H](C)C(=O)[C@H](C)[C@@H](O)[C@]1(C)O` [Erythromycin], the “CL145A resistant or sensitive to the antibiotic (growth inhibited by the antibiotic disc)” value is “resistant”.

With `[H]/N=C(/N)N[C@H]1[C@H](O)[C@@H](O)[C@H](O[C@@H]2O[C@@H](C)[C@](O)(C=O)[C@H]2O[C@@H]2O[C@@H](CO)[C@H](O)[C@@H](O)[C@@H]2NC)[C@@H](N/C(N)=N\[H])[C@@H]1O` [Streptomycin], the “CL145A resistant or sensitive to the antibiotic (growth inhibited by the antibiotic disc)” value is listed as “resistant”.

Turning to `CO/N=C(\C(=O)N[C@@H]1C(=O)N2C(C(=O)O)=C(COC(N)=O)CS[C@H]12)c1ccco1` [Cefuroxime], the “CL145A resistant or sensitive to the antibiotic (growth inhibited by the antibiotic disc)” value is on record as “resistant”.

Regarding `CCN1CCN(C(=O)N[C@@H](C(=O)N[C@@H]2C(=O)N3[C@@H]2SC(C)(C)[C@@H]3C(=O)O)c2ccccc2)C(=O)C1=O` [Piperacillin], the “CL145A resistant or sensitive to the antibiotic (growth inhibited by the antibiotic disc)” value is reported as “sensitive”.

Values taken from patent publication US9918479B2, “Control of phytopathogenic microorganisms with Pseudomonas sp. and substances and compositions derived therefrom” (priority 2012, dated 2018).
